US10471024B2, “Increased effectiveness of allylamine drug compounds for topical treatment of fungal infections of the skin and skin appendages” (BIOPHILE CORPORATION, LTD., priority 2007, dated 2019)
Structures can show the parent of a compound that is named as a salt.

Legend:
[1] = zeta potential of terbinafine hydrochloride solution; type: physicochemical; details: 0.02 g/ml solution
Description: Prototype measurements of zeta potential of the 0.02 g/ml terbinafine hydrochloride solution and the result is positive at pH of below 5.11. However, there are other anions in the solution, e.g., chloride ion and hydroxide ion (sodium hydroxide was used to adjust the solution pH) that make negative values of zeta potential. [table]

[2] = 0.5% in methanol/water (4:6), 25 degrees Celsius; cited from earlier work
[3] = theoretical fraction of positively charged terbinafine from pKa; type: physicochemical
Description: The positive charge can be determined by examining the pKa of the active ingredient. […] At pH<pKa, the positively charged terbinafine is more than 50%. When pH>pKa the positively charged terbinafine is less than 50%.

CN(C/C=C/C#CC(C)(C)C)Cc1cccc2ccccc12 [Terbinafine hydrochloride]
Zeta Potential ([1]; pH 3.68): +12.1 mV | Zeta Potential ([1]; pH 5.11): +31.2 mV | Zeta Potential ([1]; pH 7.07 (adjusted with sodium hydroxide)): −34.0 mV | Zeta Potential ([1]; pH 8.73 (adjusted with sodium hydroxide)): −58.8 mV | pH of a solution [2]: approximately 4.7

CN(C/C=C/C#CC(C)(C)C)Cc1cccc2ccccc12 [Terbinafine]
positively charged terbinafine ([3]; pH 5.10): about 99% | positively charged terbinafine molecules ([3]; pH 7.10): 50% | positively charged terbinafine ([3]; pH 9.10): about 1%
